In patent US10828316B2, “Method of treating bacterial infections” (priority 2016, dated 2020):
In brackets after ≈: the same amount, converted by molar mass. Read-outs that look alike come from different tables or passages of the source.

Columns and labels:
E. coli B EN0458 = test: MIC; assay type: cell-based, Escherichia coli B
E. aerogenes EN0461 = test: MIC; assay type: cell-based, Enterobacter aerogenes
K. pneumoniae EN0463 = test: MIC; assay type: cell-based, Klebsiella pneumoniae
S. epidermidis EN0456 = test: MIC; assay type: cell-based, Staphylococcus epidermidis
S. typhimurium EN0466 = test: MIC; assay type: cell-based, Salmonella typhimurium
[1] = test system: A. pittii or A. nosocomialis EN0180; test: MIC; assay type: cell-based, Acinetobacter pittii or nosocomialis; settings: in FdUrd+trimethoprim+uridine combination
K. oxytoca EN0392 = test: MIC; assay type: cell-based, Klebsiella oxytoca
E. coli EN001 = test: MIC; assay type: cell-based, Escherichia coli
E. coli EN002 = test: MIC; assay type: cell-based, Escherichia coli
P. aeruginosa EN004 = test: MIC; assay type: cell-based, Pseudomonas aeruginosa; settings: in FdUrd+trimethoprim+uridine combination
P. aeruginosa EN005 = test: MIC; assay type: cell-based, Pseudomonas aeruginosa; settings: in FdUrd+trimethoprim+uridine combination
K. pneumoniae EN006 = test: MIC; assay type: cell-based, Klebsiella pneumoniae
S. aureus EN008 = test: MIC; assay type: cell-based, Staphylococcus aureus; settings: in FdUrd+trimethoprim+uridine combination
K. pneumoniae EN010 = test: MIC; assay type: cell-based, Klebsiella pneumoniae
K. pneumoniae EN011 = test: MIC; assay type: cell-based, Klebsiella pneumoniae
E. coli EN012 = test: MIC; assay type: cell-based, Escherichia coli
E. coli EN013 = test: MIC; assay type: cell-based, Escherichia coli
P. aeruginosa EN015 = test: MIC; assay type: cell-based, Pseudomonas aeruginosa
A. baumannii EN017 = test: MIC; assay type: cell-based, Acinetobacter baumannii
E. coli EN0001 = test: MIC; assay type: cell-based
E. coli EN0135 = test: MIC; assay type: cell-based; settings: in FdUrd+trimethoprim+uridine combination
E. coli EN0137 = test: MIC; assay type: cell-based; settings: in FdUrd+trimethoprim+uridine combination
E. coli EN0138 = test: MIC; assay type: cell-based; settings: in FdUrd+trimethoprim+uridine combination
K. pneumoniae EN0006 = test: MIC; assay type: cell-based
K. pneumoniae EN0233 = test: MIC; assay type: cell-based
K. pneumoniae EN0142 = test: MIC; assay type: cell-based; settings: in FdUrd+trimethoprim+uridine combination
K. pneumoniae EN0249 = test: MIC; assay type: cell-based; settings: in FdUrd+trimethoprim+uridine combination
K. pneumoniae EN0401 = test: MIC; assay type: cell-based
K. pneumoniae EN0436 = test: MIC; assay type: cell-based
P. aeruginosa EN0004 = test: MIC; assay type: cell-based
A. baumannii EN0007 = test: MIC; assay type: cell-based, A. baumanii
S. flexneri APV00906 = test: MIC; assay type: cell-based; settings: S. flexneri APV00906
S. flexneri APV00907 = test: MIC; assay type: cell-based; settings: S. flexneri APV00907
S. sonnei APV00908 = test: MIC; assay type: cell-based; settings: S. sonnei APV00908
[2] = test system: Helicobacter pylori APV00918; test: MIC; assay type: cell-based; settings: in FdUrd+trimethoprim+uridine combination
Text: (§1) Inhibition of Heliobacter is important in view of increasing resistance and its association to gastric cancer.

[3] = test system: Helicobacter pylori ATTC43504; test: MIC; assay type: cell-based
Text: as §1

E. coli ATCC 25922 = test: MIC, in vitro sensitivity of the strain used in vivo; settings: Escherichia coli
[4] = in FdUrd+trimethoprim+uridine combination
[5] = in didanosine+trimethoprim+uridine combination
[6] = Combination 1 (AZT+trimethoprim+uridine)
[7] = in AZT+trimethoprim+uridine combination
[8] = Combination 2 (same mixed with thymidine)

`O=c1[nH]c(=O)n([C@H]2C[C@H](O)[C@@H](CO)O2)cc1F` [FdUrd] showed an MIC (E. coli B EN0458; [4]) of 0.032 µg/mL, an MIC (E. aerogenes EN0461; [4]) of 1 µg/mL and an MIC (K. pneumoniae EN0463; [4]) of 0.25 µg/mL. It also gave an MIC (S. epidermidis EN0456; [4]) of under 0.008 µg/mL, an MIC (S. typhimurium EN0466; [4]) of 0.125 µg/mL and an MIC [1] of 4 µg/mL. It also gave an MIC (K. oxytoca EN0392; [4]) of 0.125 µg/mL, an MIC (E. coli EN001; [4]) of 0.125 µg/mL and an MIC (E. coli EN002; [4]) of 0.032 µg/mL. For the same molecule, the MIC (P. aeruginosa EN004) was over 4 µg/mL, the MIC (P. aeruginosa EN005) was 0.25 µg/mL and the MIC (K. pneumoniae EN006; [4]) was 0.5 µg/mL. For the same molecule, the MIC (S. aureus EN008) was under 0.008 µg/mL, the MIC (K. pneumoniae EN010; [4]) was 0.5 µg/mL and the MIC (K. pneumoniae EN011; K. pneumoniae EN011, in FdUrd+trimethoprim+uridine combination) was 0.064 µg/mL. It also gave an MIC (E. coli EN012; [4]) of 0.032 µg/mL, an MIC (E. coli EN013; E. coli EN013, in FdUrd+trimethoprim+uridine combination) of 0.016 µg/mL and an MIC (P. aeruginosa EN015; P. aeruginosa EN015, in FdUrd+trimethoprim+uridine combination) of 1 µg/mL. The MIC (A. baumannii EN017; A. baumannii EN017, in FdUrd+trimethoprim+uridine combination) was 0.5 µg/mL, the MIC (E. coli EN0001; [4]) was 0.25 µg/mL and the MIC (E. coli EN0135) was 0.25 µg/mL. It also gave an MIC (E. coli EN0137) of over 4 µg/mL, an MIC (E. coli EN0138) of 0.25 µg/mL and an MIC (K. pneumoniae EN0006; [4]) of 0.5 µg/mL. The MIC (K. pneumoniae EN0233; [4]) was 0.5 µg/mL, the MIC (K. pneumoniae EN0142) was 0.125 µg/mL and the MIC (K. pneumoniae EN0249) was over 4 µg/mL. The MIC (K. pneumoniae EN0401; [4]) was over 4 µg/mL, the MIC (K. pneumoniae EN0436; [4]) was 0.25 µg/mL and the MIC (P. aeruginosa EN0004; [4]) was over 4 µg/mL. The MIC (A. baumannii EN0007; [4]) was over 4 µg/mL, the MIC (S. flexneri APV00906; [4]) was over 4 µg/mL and the MIC (S. flexneri APV00907; [4]) was over 4 µg/mL. It also gave an MIC (S. sonnei APV00908; [4]) of over 4 µg/mL, an MIC [2] of 0.06 µg/mL and an MIC [3, 4] of 0.06 µg/mL.

Molecule `COc1cc(Cc2cnc(N)nc2N)cc(OC)c1OC` [Trimethoprim, trimethoprim] has an MIC (E. coli B EN0458; [4]) of 0.064 µg/mL, an MIC (E. coli B EN0458; [5]) of 0.064 µg/mL and an MIC (E. aerogenes EN0461; [6]) of 0.25 µg/mL. For the same molecule, the MIC (E. aerogenes EN0461; [7]) was 0.25 µg/mL, the MIC (K. pneumoniae EN0463; [6]) was 0.125 µg/mL and the MIC (K. pneumoniae EN0463; [8]) was 0.25 µg/mL. It also gave an MIC (S. epidermidis EN0456; [6]) of 0.064 µg/mL, an MIC (S. epidermidis EN0456; [5]) of 0.125 µg/mL and an MIC (S. typhimurium EN0466; [6]) of 0.064 µg/mL. It also gave an MIC (S. typhimurium EN0466; [4]) of 0.25 µg/mL, an MIC (K. oxytoca EN0392; [6]) of 0.064 µg/mL and an MIC (K. oxytoca EN0392; [4]) of 0.25 µg/mL. The MIC (E. coli EN001; [6]) was 0.064 µg/mL, the MIC (E. coli EN001; [4]) was 0.25 µg/mL and the MIC (E. coli EN001; [5]) was 0.25 µg/mL. The MIC (E. coli EN002; [8]) was 0.125 µg/mL, the MIC (E. coli EN002; [4]) was 0.064 µg/mL and the MIC (E. coli EN002; [5]) was 0.064 µg/mL. It also gave an MIC (K. pneumoniae EN006; [6]) of 0.125 µg/mL, an MIC (K. pneumoniae EN010; [6]) of 0.25 µg/mL and an MIC (K. pneumoniae EN011; Klebsiella pneumoniae, EN011, K. pneumoniae EN011, Combination 1 (AZT+trimethoprim+uridine)) of 0.032 µg/mL. It also gave an MIC (K. pneumoniae EN011; Klebsiella pneumoniae, EN011, K. pneumoniae EN011, Combination 2 (same mixed with thymidine)) of 0.25 µg/mL, an MIC (K. pneumoniae EN011; Klebsiella pneumoniae, EN011, K. pneumoniae EN011, in AZT+trimethoprim+uridine combination) of 0.125 µg/mL and an MIC (K. pneumoniae EN011; Klebsiella pneumoniae, EN011, K. pneumoniae EN011, in FdUrd+trimethoprim+uridine combination) of 0.125 µg/mL. It also gave an MIC (K. pneumoniae EN011; Klebsiella pneumoniae, EN011, K. pneumoniae EN011, in didanosine+trimethoprim+uridine combination) of 0.25 µg/mL, an MIC (E. coli EN012; [4]) of 0.064 µg/mL and an MIC (E. coli EN012; [5]) of 0.125 µg/mL. For the same molecule, the MIC (E. coli EN013; Escherichia coli, EN013, E. coli EN013, Combination 1 (AZT+trimethoprim+uridine)) was under 0.008 µg/mL, the MIC (E. coli EN013; Escherichia coli, EN013, E. coli EN013, Combination 2 (same mixed with thymidine)) was under 0.008 µg/mL and the MIC (E. coli EN013; Escherichia coli, EN013, E. coli EN013, in AZT+trimethoprim+uridine combination) was under 0.008 µg/mL. For the same molecule, the MIC (E. coli EN013; Escherichia coli, EN013, E. coli EN013, in FdUrd+trimethoprim+uridine combination) was 0.032 µg/mL, the MIC (E. coli EN013; Escherichia coli, EN013, E. coli EN013, in didanosine+trimethoprim+uridine combination) was 0.032 µg/mL and the MIC (P. aeruginosa EN015; Pseudomonas aeruginosa, EN015, P. aeruginosa EN015, Combination 1 (AZT+trimethoprim+uridine)) was 2 µg/mL. It also gave an MIC (P. aeruginosa EN015; Pseudomonas aeruginosa, EN015, P. aeruginosa EN015, Combination 2 (same mixed with thymidine)) of 2 µg/mL, an MIC (P. aeruginosa EN015; Pseudomonas aeruginosa, EN015, P. aeruginosa EN015, in AZT+trimethoprim+uridine combination) of 2 µg/mL and an MIC (P. aeruginosa EN015; Pseudomonas aeruginosa, EN015, P. aeruginosa EN015, in FdUrd+trimethoprim+uridine combination) of 2 µg/mL. The MIC (P. aeruginosa EN015; Pseudomonas aeruginosa, EN015, P. aeruginosa EN015, in didanosine+trimethoprim+uridine combination) was 2 µg/mL, the MIC (A. baumannii EN017; Acinetobacter baumannii, EN017, A. baumannii EN017, Combination 1 (AZT+trimethoprim+uridine)) was 1 µg/mL and the MIC (A. baumannii EN017; Acinetobacter baumannii, EN017, A. baumannii EN017, Combination 2 (same mixed with thymidine)) was 1 µg/mL. It also gave an MIC (A. baumannii EN017; Acinetobacter baumannii, EN017, A. baumannii EN017, in AZT+trimethoprim+uridine combination) of 1 µg/mL, an MIC (A. baumannii EN017; Acinetobacter baumannii, EN017, A. baumannii EN017, in FdUrd+trimethoprim+uridine combination) of 1 µg/mL and an MIC (A. baumannii EN017; Acinetobacter baumannii, EN017, A. baumannii EN017, in didanosine+trimethoprim+uridine combination) of 2 µg/mL. The MIC (E. coli EN0001; [7]) was 0.125 µg/mL, the MIC (E. coli EN0001; [4]) was 0.5 µg/mL and the MIC (E. coli EN0001; [5]) was 0.5 µg/mL. It also gave an MIC (K. pneumoniae EN0006; [7]) of 0.25 µg/mL, an MIC (K. pneumoniae EN0006; [4]) of 1 µg/mL and an MIC (K. pneumoniae EN0006; [5]) of 1 µg/mL. The MIC (K. pneumoniae EN0233; [7]) was 0.25 µg/mL, the MIC (K. pneumoniae EN0401; [4]) was over 8 µg/mL and the MIC (K. pneumoniae EN0401; [5]) was over 8 µg/mL. It also gave an MIC (K. pneumoniae EN0436; [7]) of 0.125 µg/mL, an MIC (P. aeruginosa EN0004; [7]) of over 4 µg/mL and an MIC (P. aeruginosa EN0004; [4]) of over 8 µg/mL. The MIC (P. aeruginosa EN0004; [5]) was over 8 µg/mL, the MIC (A. baumannii EN0007; [7]) was over 4 µg/mL and the MIC (A. baumannii EN0007; [4]) was over 8 µg/mL. The MIC (A. baumannii EN0007; [5]) was over 8 µg/mL, the MIC (S. flexneri APV00906; [7]) was 1 µg/mL and the MIC (S. flexneri APV00906; [4]) was over 8 µg/mL. The MIC (S. flexneri APV00907; [7]) was 2 µg/mL, the MIC (S. flexneri APV00907; [4]) was over 8 µg/mL and the MIC (S. sonnei APV00908; [7]) was 0.03 µg/mL. For the same molecule, the MIC (S. sonnei APV00908; [4]) was over 8 µg/mL, the MIC [2] was 0.125 µg/mL and the MIC [3, 7] was 0.125 µg/mL. For the same molecule, the MIC [3, 4] was 0.125 µg/mL, the MIC (E. coli ATCC 25922; ATCC25922, read-out: MIC against E. coli ATCC 25922, Plate C: TMP alone) was 0.5 µg/mL (≈ 1.72 µM) and the MIC (E. coli ATCC 25922; ATCC25922, read-out: MIC against E. coli ATCC 25922, Plate F: TMP with 2 μg/ml thymidine) was 1 µg/mL (≈ 3.44 µM). It also gave an MIC (E. coli ATCC 25922; ATCC25922, read-out: MIC against E. coli ATCC 25922: TMP, Plate A: AZT + TMP with 50 μg/ml uridine) of 0.06 µg/mL and an MIC (E. coli ATCC 25922; ATCC25922, read-out: MIC against E. coli ATCC 25922: TMP, Plate D: AZT + TMP with 50 μg/ml uridine and 2 μg/ml thymidine) of 0.5 µg/mL.
